The values that follow come from patent publication US9023789B2, “Amylin analogs and pharmaceutical compositions thereof” (Novo Nordisk A/S, priority 2012, dated 2015).

Converted amounts (≈) assume the structure as drawn. Read-outs that look alike come from different tables or passages of the source. Numbered stars: 1 amine (or outer) side, 2 acyl side, 3 side chain; on linkers, the order of the positions; unused ones are H or OH. Bridge positions count the residues as written; N and C are the ends. Side chains are listed from the residue outwards. Peptide text beside a SMILES is read from it. * marks the point of attachment. C20 diacid = O=C(O)CCCCCCCCCCCCCCCCCCC(=O)*; γGlu = O=C(O)[C@H](CCC(=O)[*:2])N[*:1]

One data set concerns the target T1, rat calcitonin receptor (Rattus norvegicus, UniProt P32214).
T1 construct: expressed in transfected cells; host or cells: BHK tk'ts 13 (transient, FuGENE 6), membranes
T1 sequence (P32214 25-479 isoform P32214-2 limits assumed): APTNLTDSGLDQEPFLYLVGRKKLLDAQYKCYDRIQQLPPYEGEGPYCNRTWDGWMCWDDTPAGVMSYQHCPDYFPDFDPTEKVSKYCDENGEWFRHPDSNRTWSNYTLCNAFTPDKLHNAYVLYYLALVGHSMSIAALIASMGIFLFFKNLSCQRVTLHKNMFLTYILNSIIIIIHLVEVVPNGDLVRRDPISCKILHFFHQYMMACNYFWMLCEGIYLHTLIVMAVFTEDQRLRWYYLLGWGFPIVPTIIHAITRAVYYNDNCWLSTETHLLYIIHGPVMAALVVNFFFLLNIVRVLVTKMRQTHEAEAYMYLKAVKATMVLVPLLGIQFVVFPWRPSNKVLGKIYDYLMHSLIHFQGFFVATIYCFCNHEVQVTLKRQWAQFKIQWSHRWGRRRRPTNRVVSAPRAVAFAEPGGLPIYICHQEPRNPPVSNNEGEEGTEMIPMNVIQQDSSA
In words: ASSAY (VIII) binding to the rat calcitonin receptor. The note with it: Table 7, read-out: rCTR bind IC50. The method in brief:
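BHK tk′ts 13 cells, transient rat calcitonin receptor transfection; DMEM + 10% FBS; harvest ~48 h post-transfection; membrane prep.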

Data set [1] addresses T2, rat amylin receptor (rat calcitonin receptor + rat RAMP 3) (Rattus norvegicus, UniProt P32214+Q9JJ73).
T2 construct: expressed in transfected cells; host or cells: BHK tk'ts 13 (transient, FuGENE 6), membranes
T2 sequence (P32214 25-479 isoform P32214-2 limits assumed): T1 sequence (P32214 25-479 isoform P32214-2 limits assumed)
T2 sequence (Q9JJ73 23-147 partner): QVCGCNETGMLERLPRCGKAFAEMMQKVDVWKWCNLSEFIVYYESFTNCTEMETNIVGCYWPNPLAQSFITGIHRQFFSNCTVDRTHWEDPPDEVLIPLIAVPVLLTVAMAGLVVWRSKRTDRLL
The data set can be described thus: ASSAY (VI) binding to the rat amylin receptor. The note with it: for IC50: binding to rat amylin receptor, read-out: rAmylin-R bind IC50. The method in brief: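 Membranes for this rat amylin receptor binding assay came from BHK tk′ts 13 cells. The cells were transiently transfected with rat calcitonin receptor using the FuGENE® 6 reagent from Roche, as the manufacturer recommends. The cells were collected approximately 48 hours after transfection, and membranes were then prepared.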

Data set [2] in a line: ASSAY (IV) determination of solubility. The data set is classed as physicochemical. The method in brief: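 Solubility measured by UPLC of supernatant after centrifugation, following 18 h at room temperature. Peptide ([…] in water) was diluted 1:1 into 100 mM glycylglycine (pH 3.0, 4.0, 5.0) or bistrispropane (pH 6.0-8.0).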
Where [3] appears, read: Table 7, rat binding selectivity, rCTR IC50 / rAmylin-R IC50.
Where [4] appears, read: Table 7a (preferred compounds), rat binding selectivity, rCTR IC50 / rAmylin-R IC50.
Where [5] appears, read: ratio of rCTR bind IC50 to rAmylin-R bind IC50.
The mark [6] stands for this setting: bistrispropane buffer, pH 6.5, read-out: Solubility pH 6.5 Concentration.
Setting [7] is: bistrispropane buffer, pH 7.5, read-out: Solubility pH 7.5 Concentration.
Setting [8] is: bistrispropane buffer, pH 6.0, read-out: Solubility pH 6.0 Concentration.
[9] abbreviates: bistrispropane buffer, pH 7.0, read-out: Solubility pH 7.0 Concentration.
The mark [10] stands for this setting: bistrispropane buffer, pH 8.0, read-out: Solubility pH 8.0 Concentration.
Setting [11] is: glycylglycine buffer, pH 3.0, read-out: Solubility pH 3.0 Concentration.
Setting [12] is: glycylglycine buffer, pH 4.0, read-out: Solubility pH 4.0 Concentration.
Setting [13] is: glycylglycine buffer, pH 5.0, read-out: Solubility pH 5.0 Concentration.

As for `CC[C@H](C)[C@H](NC(=O)[C@H](C)NC(=O)CNC(=O)[C@H](Cc1ccccc1)NC(=O)[C@H](CC(N)=O)NC(=O)[C@@H]1CCCN1C(=O)[C@H](CO)NC(=O)[C@H](CO)NC(=O)[C@H](Cc1c[nH]cn1)NC(=O)[C@H](CCCNC(=N)N)NC(=O)[C@H](CC(C)C)NC(=O)[C@H](Cc1ccccc1)NC(=O)[C@H](C)NC(=O)[C@H](C)NC(=O)[C@H](CC(C)C)NC(=O)[C@H](CCCNC(=N)N)NC(=O)[C@H](CCC(N)=O)NC(=O)[C@@H](NC(=O)[C@H](C)NC(=O)[C@@H]1CSSC[C@H](NC(=O)[C@@H](N)CCCCNC(=O)CC[C@H](NC(=O)CCCCCCCCCCCCCCCCCCC(=O)O)C(=O)O)C(=O)N[C@@H](CC(N)=O)C(=O)N[C@@H]([C@@H](C)O)C(=O)N[C@@H](C)C(=O)N[C@@H]([C@@H](C)O)C(=O)N1)[C@@H](C)O)C(=O)N1CCC[C@H]1C(=O)N[C@@H](CO)C(=O)N[C@@H](CO)C(=O)N[C@H](C(=O)N[C@@H](CC(N)=O)C(=O)N[C@H](C(=O)NCC(=O)N[C@@H](Cc1c[nH]cn1)C(=O)N[C@@H](CC(N)=O)C(=O)N[C@H](C(=O)N[C@@H](Cc1ccc(O)cc1)C(N)=O)[C@@H](C)O)C(C)C)[C@@H](C)O` [Example 93] (H-K([γGlu-C20 diacid])CNTATCATQRLAAFLRHSSPNFGAIPSSTNVGHNTY-NH2; disulfide 2-7; N-terminus assumed), the results for the IC50 (at rat calcitonin receptor; in data set [1] (Table 7)) were 131 nM and 1.58 nM, respectively. The “Ratio rCT/rAmylin binding” value in data set [1] (setting [3]), in data set [1] (setting [4]) and in data set [1] (setting [5]) was 83.2 in each case. Also, the solubility at 18 h in data set [2] (setting [6]), in data set [2] (setting [7]), in data set [2] (setting [8]), in data set [2] (setting [9]), in data set [2] (setting [10]) and in data set [2] (setting [11]) was no less than 200 µM in each case. Moreover, the solubility at 18 h in data set [2] (setting [12]) and in data set [2] (setting [13]) was no less than 200 µM in each case.

For `CC[C@H](C)[C@H](NC(=O)[C@H](C)NC(=O)CNC(=O)[C@H](Cc1ccccc1)NC(=O)[C@H](CC(N)=O)NC(=O)[C@@H]1CCCN1C(=O)[C@H](CO)NC(=O)[C@H](CO)NC(=O)[C@H](Cc1c[nH]cn1)NC(=O)[C@H](CCCNC(=N)N)NC(=O)[C@H](CC(C)C)NC(=O)[C@H](Cc1ccccc1)NC(=O)[C@H](CC(N)=O)NC(=O)[C@H](C)NC(=O)[C@H](CC(C)C)NC(=O)[C@H](CCCNC(=N)N)NC(=O)[C@H](CCC(N)=O)NC(=O)[C@@H](NC(=O)[C@H](C)NC(=O)[C@@H]1CSSC[C@H](NC(=O)[C@@H](N)CCCCNC(=O)COCCOCCNC(=O)COCCOCCNC(=O)CC[C@H](NC(=O)CCCCCCCCCCCCCCCCCCC(=O)O)C(=O)O)C(=O)N[C@@H](CC(N)=O)C(=O)N[C@@H]([C@@H](C)O)C(=O)N[C@@H](C)C(=O)N[C@@H]([C@@H](C)O)C(=O)N1)[C@@H](C)O)C(=O)N1CCC[C@H]1C(=O)N[C@@H](CO)C(=O)N[C@@H](CO)C(=O)N[C@H](C(=O)N1CCC[C@H]1C(=O)N[C@H](C(=O)NCC(=O)N[C@@H](CO)C(=O)N[C@@H](CC(N)=O)C(=O)N[C@H](C(=O)N[C@@H](Cc1ccc(O)cc1)C(N)=O)[C@@H](C)O)C(C)C)[C@@H](C)O` [Example 96], the IC50 on rat calcitonin receptor is 62.2 nM; in data set [1] (Table 7) it was 0.529 nM. For the same molecule, the “Ratio rCT/rAmylin binding” value in data set [1] (setting [3]), in data set [1] (setting [4]) and in data set [1] (setting [5]) was 117.5 throughout. Besides, the solubility at 18 h in data set [2] (setting [6]), in data set [2] (setting [7]), in data set [2] (setting [8]), in data set [2] (setting [9]), in data set [2] (setting [10]) and in data set [2] (setting [11]) was no less than 200 µM each time. Further, the solubility at 18 h in data set [2] (setting [12]) and in data set [2] (setting [13]) was no less than 200 µM in each case.

`CC[C@H](C)[C@H](NC(=O)[C@H](C)NC(=O)CNC(=O)[C@H](Cc1ccccc1)NC(=O)[C@H](CC(N)=O)NC(=O)[C@@H]1CCCN1C(=O)[C@H](CO)NC(=O)[C@H](CO)NC(=O)[C@H](Cc1c[nH]cn1)NC(=O)[C@H](CCCNC(=N)N)NC(=O)[C@H](CC(C)C)NC(=O)[C@H](Cc1ccccc1)NC(=O)[C@H](CC(N)=O)NC(=O)[C@H](C)NC(=O)[C@H](CC(C)C)NC(=O)[C@H](CCCNC(=N)N)NC(=O)[C@H](CCC(N)=O)NC(=O)[C@@H](NC(=O)[C@H](C)NC(=O)[C@@H]1CSSC[C@H](NC(=O)[C@@H](N)CCCCNC(=O)COCCOCCNC(=O)COCCOCCNC(=O)CC[C@H](NC(=O)CCCCCCCCCCCCCCCCCCC(=O)O)C(=O)O)C(=O)N[C@@H](CC(N)=O)C(=O)N[C@@H]([C@@H](C)O)C(=O)N[C@@H](C)C(=O)N[C@@H]([C@@H](C)O)C(=O)N1)[C@@H](C)O)C(=O)N1CCC[C@H]1C(=O)N[C@@H](CO)C(=O)N[C@@H](CO)C(=O)N[C@H](C(=O)N[C@@H](CC(N)=O)C(=O)N[C@H](C(=O)NCC(=O)N[C@@H](Cc1c[nH]cn1)C(=O)N[C@@H](CC(N)=O)C(=O)N[C@H](C(=O)N[C@@H](Cc1ccc(O)cc1)C(N)=O)[C@@H](C)O)C(C)C)[C@@H](C)O` [Example 97]: the IC50 amounted to 159 nM at rat calcitonin receptor and 2.24 nM in data set [1] (Table 7). In addition, the “Ratio rCT/rAmylin binding” value in data set [1] (setting [3]), in data set [1] (setting [4]) and in data set [1] (setting [5]) was 71.1 throughout. Also, the solubility at 18 h in data set [2] (setting [6]) is no less than 200 µM; in data set [2] (setting [7]), 88 µM (≈ 415 µg/mL); in data set [2] (setting [8]), no less than 200 µM; in data set [2] (setting [9]), no less than 200 µM; in data set [2] (setting [10]), 43 µM (≈ 203 µg/mL); in data set [2] (setting [11]), no less than 200 µM. Moreover, the solubility at 18 h in data set [2] (setting [12]) and in data set [2] (setting [13]) was no less than 200 µM throughout. Besides, the “Solubility pH 6.5 Concentration” value in data set [2] (pH 6.5 (Table 9a)) is reported as “≧200 μM”. Further, in data set [2] (pH 7.0 (Table 9a)), the “Solubility pH 7.0 Concentration” value is reported as “≧200 μM”.

For `CC[C@H](C)[C@H](NC(=O)[C@H](C)NC(=O)CNC(=O)[C@H](Cc1ccccc1)NC(=O)[C@H](CC(N)=O)NC(=O)[C@@H]1CCCN1C(=O)[C@H](CO)NC(=O)[C@H](CO)NC(=O)[C@H](Cc1c[nH]cn1)NC(=O)[C@H](CCCNC(=N)N)NC(=O)[C@H](CC(C)C)NC(=O)[C@H](Cc1ccccc1)NC(=O)[C@H](CC(N)=O)NC(=O)[C@H](C)NC(=O)[C@H](CC(C)C)NC(=O)[C@H](CCCNC(=N)N)NC(=O)[C@H](CCC(N)=O)NC(=O)[C@@H](NC(=O)[C@H](C)NC(=O)[C@@H]1CSSC[C@H](NC(=O)[C@@H](N)CCCCNC(=O)COCCOCCNC(=O)COCCOCCNC(=O)CC[C@H](NC(=O)CCCCCCCCCCCCCCCCCCC(=O)O)C(=O)O)C(=O)N[C@@H](CC(N)=O)C(=O)N[C@@H]([C@@H](C)O)C(=O)N[C@@H](C)C(=O)N[C@@H]([C@@H](C)O)C(=O)N1)[C@@H](C)O)C(=O)N1CCC[C@H]1C(=O)N[C@@H](CO)C(=O)N[C@@H](CO)C(=O)N[C@H](C(=O)N[C@@H](CC(N)=O)C(=O)N[C@H](C(=O)NCC(=O)N1CCC[C@H]1C(=O)N[C@@H](CC(N)=O)C(=O)N[C@H](C(=O)N[C@@H](Cc1ccc(O)cc1)C(N)=O)[C@@H](C)O)C(C)C)[C@@H](C)O` [Example 98], the figures for the IC50 (at rat calcitonin receptor; in data set [1] (Table 7)) were 24.1 nM and 0.137 nM, respectively. Also, the “Ratio rCT/rAmylin binding” value in data set [1] (setting [3]), in data set [1] (setting [4]) and in data set [1] (setting [5]) was 175.5 in each case. Also, the solubility at 18 h is no less than 200 µM in data set [2] (setting [6]); no less than 200 µM in data set [2] (setting [7]); no less than 200 µM in data set [2] (setting [8]); no less than 200 µM in data set [2] (setting [9]); 176 µM (≈ 824 µg/mL) in data set [2] (setting [10]); no less than 200 µM in data set [2] (setting [11]). The solubility at 18 h in data set [2] (setting [12]) and in data set [2] (setting [13]) was no less than 200 µM each time.

A word on the IC50: it is the concentration that inhibits the measured activity by half.
